Source: ChEMBL document CHEMBL1201862, “PubChem BioAssay data set” (2004)
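How tested: cells in 96-well plates exposed to compound for 48 hours at five concentrations. GI50 is the concentration that inhibits growth by half.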 Active and inactive are the calls of the source. Cut-off read from the data, not from the text of the source: active = GI50 up to about 1.1 µM and inactive = higher.

Experiments:
Experiment in all cases: growth of human tumour cells (NCI), 48 h
HCC 2998 = system: HCC 2998
UO-31 = system: UO-31
A549 = system: A549
SK-MEL-2 = system: SK-MEL-2
MDA-MB-435 = system: MDA-MB-435
OVCAR-3 = system: OVCAR-3
NCI/ADR-RES = system: NCI/ADR-RES
ACHN = system: ACHN
LOX IMVI = system: LOX IMVI
U-251 = system: U-251
SF-539 = system: SF-539
CCRF-CEM = system: CCRF-CEM
TK-10 = system: TK-10
T47D = system: T47D
K562 = system: K562
MDA-N = system: MDA-N
786-0 = system: 786-0
NCI-H460 = system: NCI-H460
Hs-578T = system: Hs-578T

Measured: GI50

O=C(Nc1cnc(O)nc1O)C(Cl)Cl
inactive: HCC 2998 > 100 µM | UO-31 > 100 µM | A549 > 100 µM | SK-MEL-2 > 100 µM | MDA-MB-435 > 100 µM | OVCAR-3 > 100 µM | NCI/ADR-RES > 100 µM | ACHN > 100 µM | LOX IMVI > 100 µM | U-251 > 100 µM | SF-539 > 100 µM | CCRF-CEM > 100 µM | TK-10 > 100 µM | T47D > 100 µM | K562 > 100 µM | MDA-N > 100 µM | 786-0 > 100 µM

COc1cc(/C=C/C(=O)OC2C(O)C3CC(OC(=O)c4cc(OC)c(OC)c(OC)c4)CC2N3C)cc(OC)c1OC (stereo not drawn)
inactive: HCC 2998 15 µM | UO-31 10.4 µM | A549 > 50 µM | SK-MEL-2 47.1 µM | MDA-MB-435 23.6 µM | OVCAR-3 8.02 µM | NCI/ADR-RES 13.7 µM | ACHN 21.9 µM | LOX IMVI 15.3 µM | U-251 40.5 µM | SF-539 21.4 µM | CCRF-CEM 17.9 µM | NCI-H460 21.8 µM | TK-10 > 50 µM | T47D 14.5 µM | K562 > 50 µM | MDA-N 36.4 µM | 786-0 18.5 µM

COC1=CC(=O)c2c(cc(COP(N)(=O)N(CCBr)CCBr)n2C)C1=O (stereo not drawn)
inactive: SK-MEL-2 1.7 µM | MDA-MB-435 1.16 µM
active: UO-31 0.131 µM | A549 < 0.01 µM | OVCAR-3 0.0822 µM | NCI/ADR-RES 0.184 µM | ACHN < 0.01 µM | LOX IMVI < 0.01 µM | U-251 < 0.01 µM | SF-539 < 0.01 µM | CCRF-CEM < 0.01 µM | NCI-H460 < 0.01 µM | TK-10 0.484 µM | T47D < 0.01 µM | K562 0.135 µM | MDA-N 0.242 µM | 786-0 < 0.01 µM

CCN(CC)CCCNc1nc(=O)[nH]c(C)c1C(=O)Nc1c2ccccc2nc2ccccc12
inactive: HCC 2998 8.79 µM | UO-31 5.6 µM | A549 4.45 µM | SK-MEL-2 20.8 µM | MDA-MB-435 5.21 µM | OVCAR-3 6.14 µM | NCI/ADR-RES 12.9 µM | ACHN 10.2 µM | LOX IMVI 8.43 µM | U-251 12.6 µM | SF-539 11.9 µM | CCRF-CEM 5.68 µM | TK-10 17.1 µM | T47D 10.7 µM | K562 4.75 µM | MDA-N 4.86 µM | 786-0 11.3 µM

COC(=O)/C=C1\CCC(C)(C(=O)NS(=O)(=O)c2ccc(C)cc2)C1(C)C (stereo not drawn)
inactive: HCC 2998 > 100 µM | UO-31 > 100 µM | A549 > 100 µM | SK-MEL-2 > 100 µM | MDA-MB-435 4.48 µM | OVCAR-3 > 100 µM | NCI/ADR-RES > 100 µM | ACHN > 100 µM | LOX IMVI > 100 µM | U-251 > 100 µM | SF-539 > 100 µM | CCRF-CEM > 100 µM | NCI-H460 > 100 µM | TK-10 > 100 µM | T47D > 100 µM | K562 > 100 µM | MDA-N > 100 µM | 786-0 > 100 µM

CCOC(=O)c1cc(-c2ccc(OC)cc2)c([N+](=O)[O-])[nH]1
inactive: HCC 2998 > 10 µM | UO-31 > 10 µM | A549 > 10 µM | SK-MEL-2 > 10 µM | MDA-MB-435 > 5.01 µM | OVCAR-3 > 10 µM | ACHN > 10 µM | U-251 > 10 µM | SF-539 > 10 µM | Hs-578T > 10 µM | CCRF-CEM > 10 µM | NCI-H460 > 10 µM | TK-10 > 10 µM | K562 1.95 µM | MDA-N > 2.46 µM | 786-0 > 10 µM

CC(=O)O[C@H]1C(=O)[C@@]2(C)C(C(OC(=O)c3ccccc3)[C@]3(O)CC(OC(=O)C(O)C(NC(=O)c4ccccc4)c4cccc(Cl)c4)C(C)=C1C3(C)C)[C@]1(OC(C)=O)CO[C@@H]1C[C@@H]2O (stereo partly drawn)
inactive: HCC 2998 4.67 µM | A549 7.64 µM | SK-MEL-2 3.39 µM | MDA-MB-435 1.55 µM | OVCAR-3 4.18 µM | NCI/ADR-RES > 10 µM | ACHN > 10 µM | LOX IMVI 4.29 µM | U-251 4.95 µM | SF-539 3.24 µM | CCRF-CEM 2.62 µM | NCI-H460 5.28 µM | TK-10 > 10 µM | T47D 8.15 µM | K562 4.94 µM | 786-0 > 10 µM
active: MDA-N 0.984 µM

COc1cccc2c(NNc3ccccc3)c3ccc([N+](=O)[O-])cc3nc12
inactive: HCC 2998 32.7 µM | UO-31 8.67 µM | A549 24.2 µM | SK-MEL-2 25.8 µM | MDA-MB-435 18.1 µM | OVCAR-3 50.2 µM | NCI/ADR-RES 41.5 µM | ACHN 20.2 µM | LOX IMVI 13.6 µM | U-251 21.2 µM | SF-539 36.4 µM | CCRF-CEM 12.5 µM | NCI-H460 32.3 µM | TK-10 21.3 µM | T47D 36.4 µM | K562 83.4 µM | MDA-N 33.1 µM | 786-0 21.2 µM
